Reference: patent US5202456A, “Compounds for inhibition of protein methylation” (The President and Fellows of Harvard College, priority 1991, dated 1993)
Entries after “also recorded” stand apart in the source; their conditions may differ. Where two headings read alike, the source gives them in different places. * marks the point of attachment. Farnesyl = CC(C)=CCC/C(C)=C/CC/C(C)=C/C*

Assays:
[1] = tested on: demethylase activity in ROS membranes; experiment: Methylation exchange/demethylation of AFC methyl ester with ROS membranes; assay type: biochemical, bovine
Method: (§1) Frozen bovine retinas (Wanda Lawson Co., Lincoln, Nebr.) were used to prepare ROS membranes depleted of peripheral proteins using a modification of the procedure of Wessling-Resnick et al. (J. Biol. Chem. 262:3697, 1987). Briefly, ROS membranes were washed with low ionic strength buffer and 100μM GTP, resuspended in 50 mM Hepes-Na (pH 7.4), 100 mM NaCl, 5 mM MgCl2, 0.1 mM phenylmethylsulfonyl fluoride, 0.1 mM dithiothreitol (buffer A) and stored in small aliquots at -80° C. until used. Transducin was isolated by disrupting ROS membranes by passing the membranes through a narrow needle and washing the disrupted membranes in a series of centrifugation steps as described by Wessling-Resnick et al. (J. Biol. Chem. 262:3697, 1987). Finally transducin was eluted from the membranes with 100μM GTP. The transducin-enriched supernatant was concentrated using Centriprep (Amicon).
(§2) For initial studies, the reaction mixture contained 20 μCi of S-adenosyl-[methyl-^3 H] methionine ([^3 H]SAM) (2.34 μM, Amersham) and an aliquot of ROS (120μg of total protein) or of washed ROS membranes (80μg of total protein) in 100 μl of buffer A. Purified transducin was added to this mixture to a concentration of 5 μM. AFC, N-acetylcysteine, or AFC methylester was added in 2 μl of dimethyl sulfoxide to give a final concentration of 20 μM, and the reaction was carried out at 37° C.
To study the demethylation process directly, AFC[^3 H]methyl ester was incubated with ROS membranes in the presence of methylation inhibitors. […] Under similar conditions, demethylation of Tγ and the putative small G protein (23-29 kDa) was also observed.

[2] = tested on: HL-60 cell extracts; experiment: Turnover of AFC methyl ester by HL-60 cell extracts; assay type: biochemical; settings: in words
[3] = target: T1, ROS methyltransferase (bovine retinal rod outer segment S-adenosyl-L-methionine-dependent methyltransferase) (Bos taurus, UniProt A0AAA9SD88); experiment: ROS methyltransferase assay: compounds as substrates (Km) or inhibitors (Ki) of AFC methylation; assay type: biochemical
T1 construct: utilizing ROS membranes as the source of methyltransferase enzyme; tissue Wanda Lawson Co., Lincoln, Nebr; (frozen bovine retinas); host or cells: bovine retinal rod outer segment (ROS) membranes
T1 sequence (A0AAA9SD88 1-284): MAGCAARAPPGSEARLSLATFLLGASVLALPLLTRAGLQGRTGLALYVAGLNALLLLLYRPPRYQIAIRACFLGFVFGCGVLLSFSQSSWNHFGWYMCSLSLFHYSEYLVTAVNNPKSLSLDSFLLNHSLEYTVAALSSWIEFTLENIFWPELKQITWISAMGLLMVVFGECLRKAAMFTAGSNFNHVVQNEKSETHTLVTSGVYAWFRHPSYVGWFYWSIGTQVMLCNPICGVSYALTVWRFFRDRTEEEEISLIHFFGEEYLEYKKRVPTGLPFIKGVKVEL
Method: Standard assays may be used to determine Km for substrates and Ki for inhibitors. […] The values of Ki and Km are calculated from kinetic assays by conventional means (Fersht, Enzyme Structure and Mechanism, W. H. Freeman and Co., New York, 1984). Examples are provided below to illustrate suitable assays, and are not intended to limit the invention.
One suitable assay of methylation functions uses bovine retinal rod outer segment (ROS) methyltransferase and a natural substrate, transducin. […] Another suitable assay uses N-acetyl-S-farnesylcysteine as a substrate for ROS methyltransferase.
The bovine retinal transducin γ subunit has a carboxyl-terminal --CAAX motif and undergoes a farnesylation reaction similar to that observed on ras (Lai et al., Proc. Natl. Acad. Sci. USA 87:7673, 1990; Fukada et al., Nature 346:658, 1990).
as §1, §2
The above-described methyltransferase assay was used to analyze the analogs described above.

[4] = tested on: transducin γ subunit; experiment: In vitro carboxyl-methylation of transducin γ subunit in ROS; assay type: biochemical, bovine; settings: 10 μM; [3H]SAM 2.3 μM; densitometry of SDS gels
Text: We have identified an S-adenosyl-L-methionine-dependent methyltransferase activity in bovine retinal rod outer segments (ROS) which methylates the free carboxyl group of the farnesylated cysteine of bovine retinal transducin γ subunit. The bovine retinal transducin γ subunit has a carboxyl-terminal --CAAX motif and undergoes a farnesylation reaction similar to that observed on ras (Lai et al., Proc. Natl. Acad. Sci. USA 87:7673, 1990; Fukada et al., Nature 346:658, 1990). Bovine retinal rod outer segment S-adenosyl-L-methionine-dependent methyltransferase (ROS methyltransferase) provides a means by which to identify compounds capable of interfering with the methylation of proteins having a carboxyl-terminal --CAAX motif.
Frozen bovine retinas (Wanda Lawson Co., Lincoln, Nebr.) were used to prepare ROS membranes depleted of peripheral proteins using a modification of the procedure of Wessling-Resnick et al. (J. Biol. Chem. 262:3697, 1987). Briefly, ROS membranes were washed with low ionic strength buffer and 100μM GTP, resuspended in 50 mM Hepes-Na (pH 7.4), 100 mM NaCl, 5 mM MgCl2, 0.1 mM phenylmethylsulfonyl fluoride, 0.1 mM dithiothreitol (buffer A) and stored in small aliquots at -80° C. until used. […]

[5] = tested on: HL-60 cells; experiment: Inhibition of HL-60 cell proliferation (trypan blue dye exclusion count); assay type: cell-based; settings: FIG. 2; in words
Method: FTA, FTP, AFHC and AFC were tested for their ability to inhibit cell growth as follows.
HL-60 cells (ATCC CCL 240, American Type Culture Collection, Rockville, Md.) which harbor an activated ras gene were grown in RPMI medium (Gibco/BRL, Bethesda, Md.) supplemented with 10-15% fetal calf serum, L-glutamine, penicillin and streptomycin. These cells were treated with various concentrations of FTA, FTP, AFHC, or AFC dissolved in dimethyl sulfoxide (DMSO) or with DMSO only (In all experiments the final DMSO concentration was 1% or less). Treated ans untreated cells were incubated under standard culture conditions for several days. Cells were counted manually at 24 hour intervals using a trypan blue dye exclusion assay which counts only live, intact cells.

[6] = tested on: 23 kDa ras protein; experiment: [3H]SAM methylation of 23 kDa ras protein in disrupted HL-60 cells; assay type: biochemical; settings: 50 μM
Method: In an in vitro labelling reaction similar to that described above for ROS membranes, the 23 kDa ras protein was the principle protein methylated by [^3 H]SAM labelling of disrupted HL-60 cells. In this assay 50 μM FTA inhibited methylation of the 23 kDa protein by 61%.

[7] = tested on: methyltransferase activity in HL-60 cells; experiment: Methylation of AFC by activity present in HL-60 cell membrane; assay type: biochemical; settings: 10-fold excess of FTA
[8] = tested on: methyltransferase present in HL-60 cell extracts; experiment: Methylation of transducin γ subunit by HL-60 cell extract methyltransferase; assay type: biochemical; settings: in words
[9] = [3H]SAM and washed ROS membranes

## COC(=O)[C@H](CSC/C=C(\C)CC/C=C(\C)CCC=C(C)C)NC(C)=O [AFC methyl ester]
[1]; ROS membranes, in presence of methylation inhibitors
  hydrolysis of methyl ester by demethylase activity: rapidly hydrolyzed
[1]; [9]
  duration of linear incorporation of radioactivity: at least 2 hr
  incorporation of radioactivity into AFC methyl ester: linear, time-dependent incorporation of radioactivity
[2]
  turnover by HL-60 cell extracts: can be turned over

## CC(C)=CCC/C(C)=C/CC/C(C)=C/CSCC(=O)O [FTA, 2-farnesylthioacetic acid]
[3]; Table 1, conventional inhibitors, read-out: Ki
  Ki: 4.6 µM
[3]; calculated, read-out: Ki for inhibition of AFC methylation
  Ki: 4.6 µM
[3]; in words
  competitive inhibition of AFC methylation: potent competitive inhibitors
  substrate activity for ROS methyltransferase: substrate activity was lost; also recorded: not substrates
[4]
  inhibition of in vitro carboxyl-methylation of transducin γ subunit: 70%
[5]
  inhibition of proliferation of HL-60 cells: can inhibit proliferation
[6]
  inhibition of methylation of the 23 kDa protein: 61%
[7]
  inhibition of AFC methylation by HL-60 membrane activity: 90%

B1: γ subunit of transducin: γ subunit (Tγ) of retinal transducin, farnesylated at cysteine (protein, UniProt P02698 2-71, looked up)
Guanine nucleotide-binding …: PVINIEDLTEKDKLKMEVDQLKKEVTLERMLVSKCCEEFRDYVEERSGEDPLVKGIPEDKNPFKELKGGC(Farnesyl)
modifications: ends and bridges not checked
notes: γ subunit (Tγ) of retinal transducin, farnesylated at cysteine
[8]
  methylation by methyltransferase in HL-60 cell extracts: can be methylated
